Assays:
[1] = system: Echinochloa crus-galli var. crus-galli; assay: Test Example 3: herbicidal effect by foliage application, Wagner pot (symbol H); type: in vivo; settings: application herbicide amount 320 g/ha
Summary of the method: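 The compound, formulated as an emulsion and diluted with water to a predetermined rate, is applied uniformly to leaves of two-week-old seedlings growing in submerged alluvial soil at 25–30 °C. Rice is included. Each plant is assessed 3 weeks later using defined criteria.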

Digitaria ciliaris = assay: Test Example 4: herbicidal effect by soil treatment (symbol F); type: in vivo; settings: application herbicide amount 320 g/ha
Summary of the method: (§1)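 Seeds were sown in sterilized diluvial soil, covered with about 1.5 cm of soil, and the soil surface was sprayed with a water-diluted emulsion of the compound at a predetermined rate. Plants grew in a greenhouse at 25° C. to 30° C.; effects were scored visually 3 weeks after application.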

Chenopodium album = assay: Test Example 4: herbicidal effect by soil treatment (symbol O); type: in vivo; settings: application herbicide amount 320 g/ha
Summary of the method: as §1

Galium spurium = assay: Test Example 4: herbicidal effect by soil treatment (symbol Q); type: in vivo; settings: application herbicide amount 320 g/ha
Summary of the method: as §1

Apera spica-venti = assay: Test Example 5: herbicidal effect by foliage application, plastic box (symbol L); type: in vivo; settings: 320 g/ha, 3 weeks after application
Summary of the method: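 Seeds were sown in sterilized diluvial soil, covered with about 1.5 cm of soil and grown 14 days in a greenhouse at 25° C. to 30° C. An emulsifiable formulation diluted in water to a set rate was sprayed over foliage, and injury was scored 3 weeks later.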

corn = assay: Test Example 5: effect on crop by foliage application, plastic box (symbol c); type: in vivo; settings: 320 g/ha, 3 weeks after application
Summary of the method: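 Plants were raised from seed in a greenhouse (25° C. to 30° C.) after sowing in a plastic box of sterilized diluvial soil.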

melting point: 147 to 149 °C
Compound: CCC(CC1CC(O)=C(c2c(C)cc(C)cc2C)C1=O)=NOC (stereo not shown) [1-038]
herbicidal effect on H (Echinochloa crus-galli var. crus-galli), grade 0-5 [1]: 5 (Herbicidal ratio of 90% or more (almost completely withered)) | F (Digitaria ciliaris) herbicidal effect grade (Digitaria ciliaris): 5 (Herbicidal ratio of 90% or more (almost completely withered)) | O (Chenopodium album) herbicidal effect grade (Chenopodium album): 0 (Herbicidal ratio of 5% or lower (almost no effect)) | Q (Galium spurium) herbicidal effect grade (Galium spurium): 0 (Herbicidal ratio of 5% or lower (almost no effect)) | L: Apera spica-venti, herbicidal effect grade (Apera spica-venti): 5 (Herbicidal ratio of 90% or more (almost completely withered)) | c: corn, effect on crop grade (corn): 4 (Herbicidal ratio of 70% or higher and lower than 90%)

From patent US11000033B2, “Ketone or oxime compound, and herbicide” (NISSAN CHEMICAL CORPORATION, priority 2014, dated 2021)
